Results reported in ChEMBL document CHEMBL4414635, “Dasymaschalolactams A-E, Aristolactams from a Twig Extract of Dasymaschalon dasymaschalum” (J Nat Prod, 2019).

Assay: Inhibition of Saccharomyces cerevisiae alpha-glucosidase using p-nitrophenyl alpha-D-glucoside as substrate incubated for 0.5 hrs followed by substrate addition and measured after 1 hr by colorimetric assay

IC50 [µM] | SMILES
256 | COc1ccc([C@@H]2CC(=O)c3c(O)cc(O)c(O)c3O2)cc1
73.7 | C[C@H]1O[C@H](O[C@H]2[C@H](O)[C@@H](O)[C@@H](O[C@H]3[C@H](O)[C@@H](O)C(O)O[C@@H]3CO)O[C@@H]2CO)[C@H](O)[C@@H](O)[C@@H]1N[C@H]1C=C(CO)[C@@H](O)[C@H](O)[C@H]1O (some centres undefined) [ACARBOSE]
4.5 | O=C(/C=C/c1ccc(O)cc1)NCCc1ccc(O)cc1 [N-P-COUMAROYL TYRAMINE]
24.7 | COc1cc(/C=C/C(=O)NCCc2ccc(O)cc2)ccc1O [N-TRANS-FERULOYL TYRAMINE]
